Experimental data from US20090253662A1, “GENETIC RISK ASSESSMENT IN HEART FAILURE: IMPACT OF GENETIC VARIATION OF ALDOSTERONE SYNTHASE PROMOTER POLYMORPHISM” (NitroMed, Inc., priority 2005, published 2009).
Structures can show the parent of a compound that is named as a salt.

Tests used:
[1] = cited from earlier work
[2] = test system: black cohorts with hypertension; details: cited from earlier work
[3] = test system: post myocardial infarction; details: addition post myocardial infarction; cited from earlier work
[4] = test system: subjects with severe heart failure; details: addition of spironolactone; cited from earlier work
[5] = test system: African American subjects with heart failure; experiment: Left ventricular remodeling by transthoracic echocardiography at baseline and six months; assay type: in vivo, human
Protocol: Subjects were followed to an endpoint of death or heart failure hospitalization. Quality of Life Assessment was performed by the Minnesota Living with Heart Failure Questionnaire at baseline and at the six month visit. Left ventricular function was assessed transthoracic echocardiography at baseline and six months. The primary endpoint for A-HeFT was a composite weighted score with three components: mortality, heart failure hospitalization and change in quality of life. Left ventricular remodeling was investigated in a subset of A-HeFT subjects by transthoracic echocardiography at baseline and at six months. Event free survival was compared by genotype class by Kaplan-Meier log rank analysis, using a linear model that predicts an intermediate phenotype for heterozygotes. Continuous variables such as composite scores were compared by genotype class by linear ANOVA. For the interaction of aldosterone genotype and the impact of therapy, outcomes analyzed by genotype were compared first overall and then separately by treatment subset, fixed combination of isosorbide dinitrate and hydralazine versus placebo.

In the case of `NNc1nncc2ccccc12` [Hydralazine hydrochloride, hydralazine hydrochloride], the solubility in alcohol ([1]; alcohol) is given as “slightly soluble”, the solubility in ether ([1]; ether) is given as “very slightly soluble” and the solubility in water [1] is given as “soluble”.
For `COC(=O)[C@@H]1CC2=CC(=O)CC[C@]2(C)[C@@]23O[C@@H]2C[C@@]2(C)[C@@H](CC[C@@]24CCC(=O)O4)[C@H]13` [eplerenone], the “effectiveness versus angiotensin II antagonists” value [2] is given as “more effective than angiotensin II antagonists” and the survival [3] is given as “improves survival”.
In the case of `O=[N+]([O-])O[C@H]1CO[C@H]2[C@@H]1OC[C@H]2O[N+](=O)[O-]` [isosorbide dinitrate, 1,4,3,6-dianhydro-D-glucitol-2,5-dinitrate], the “solubility in organic solvents” value ([1]; organic solvents such as ethanol, ether and chloroform) is listed as “freely soluble” and the solubility in water [1] is listed as “sparingly soluble”.
For `CC(=O)S[C@@H]1CC2=CC(=O)CC[C@]2(C)[C@H]2CC[C@@]3(C)[C@@H](CC[C@@]34CCC(=O)O4)[C@H]12` [spironolactone], the survival [4] is listed as “improved survival”, the “Left Ventricular Diastolic Diameter (LVDD) at 6 Months” value (“Left Ventricular Diastolic Diameter” for short) ([5]; -344 CC genotype) is listed as 6.5 ± 0.8 cm and the “Left Ventricular Ejection Fraction (LVEF) at 6 Months” value ([5]; -344 CC genotype) is listed as 32 ± 6%. The “Left Ventricular Diastolic Diameter” value ([5]; -344 TC genotype) was 6.3 ± 1.5 cm and the “Left Ventricular Diastolic Diameter” value ([5]; -344 TT genotype) was 6.2 ± 1.4 cm.
